Data taken from patent publication US10071976B2, “Small molecule fatty acid synthase inhibitors” (Sanford Burnham Prebys Medical Discovery Institute, priority 2014, dated 2018).

Molecular target: FASN-TE (Homo sapiens, UniProt P49327)
Test: In-vitro biochemical assay measuring FAS-TE inhibition (OMFH substrate, fluorescence)
Description: Min wells: Substrate+No enzyme+DMSO, Max wells: Substrate+Enzyme+DMSO, Sample wells: Substrate+Enzyme+Test compounds, Reference compound: Orlistat (make a fresh 10 mM stock in DMSO each time). 384-well black, low-volume plate (Greiner #784076)
Assay Protocol: • 1) ECHO transfer 160 nL of 125× Compound (or DMSO for control wells) per well. • 2) For Max and Sample wells: Add 10 μL of Enzyme (2×; 1.8 μM) prepared in RXN Buffer. For Min wells: Add 10 μL of RXN Buffer (No Enzyme). • 3) For all wells: Add 10 μL of Substrate (2×; 20 μM) prepared in diH2O+10% DMSO. • 4) Centrifuge plate for 1 minute at 1,000 rpm. • 5) Measure fluorescence every 5 minutes for 1-1.5 hours using the BMG POLARstar (ex 485 nm/em 520 nm; Gain=1015; 25 flashes). • 6) All volumes can be adjusted but the final DMSO concentration should be kept at about 6%.
Data Analysis: • 1) Calculate slopes and express as % Activity (Min wells=0%; Max wells=100%). • 2) Then, using Prism, calculate the IC50 values.

Sequence of FASN-TE (P49327 2207-2511 limits assumed): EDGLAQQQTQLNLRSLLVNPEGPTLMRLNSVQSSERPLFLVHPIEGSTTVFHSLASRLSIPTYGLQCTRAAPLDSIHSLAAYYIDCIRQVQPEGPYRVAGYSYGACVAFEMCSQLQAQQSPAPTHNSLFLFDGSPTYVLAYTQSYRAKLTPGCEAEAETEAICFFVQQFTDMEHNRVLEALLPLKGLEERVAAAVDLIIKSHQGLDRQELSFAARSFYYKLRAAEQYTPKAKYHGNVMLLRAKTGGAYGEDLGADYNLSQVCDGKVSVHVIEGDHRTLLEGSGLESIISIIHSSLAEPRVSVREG

Compound	IC50
O=C(Nc1nc(-c2ccc(S(=O)(=O)N3CCOCC3)cc2)cs1)C1CCCCC1 [Compound 20]	> 80 µM
CCN(CC)S(=O)(=O)c1ccc(-c2csc(C(C)C)n2)cc1 [Compound 101]	11.4 µM
O=S(=O)(c1ccc(-c2csc(N3CCCC3)n2)cc1)N1CCOCC1 [Compound 98]	1.18 µM
CCCCCCCC(=O)Nc1nc(-c2ccc(S(=O)(=O)N3CCCCC3C)cc2)cs1 (centres unmarked) [Compound 47]	4.3 µM
CCCCC(=O)Nc1nc(-c2ccc(S(=O)(=O)N3CCSCC3)cc2)cs1 [Compound 12]	0.71 µM
CCN(CC)S(=O)(=O)c1ccc(-c2csc(NC(=O)CC(C)C)n2)cc1 [Compound 99]	19 µM
O=S(=O)(c1ccc(-c2csc(-c3cccnc3)n2)cc1)N1CCCCC1 [Compound 64]	2.68 µM
O=C(Nc1nc(-c2ccc(S(=O)(=O)N3CCOCC3)cc2)cs1)C1CCC1 [Compound 18]	3.6 µM
CCN(CC)S(=O)(=O)c1ccc(-c2csc(NC(=O)C(C)C)n2)cc1 [Compound 33]	0.28 µM
CC(C)c1nc(-c2ccc(S(=O)(=O)N3CCOCC3)cc2)cs1 [Compound 115]	21.7 µM
CC1CCN(S(=O)(=O)c2ccc(-c3csc(NC(=O)C4CC4)n3)cc2)CC1 [Compound 25]	> 80 µM
O=S(=O)(c1ccc(-c2csc(-c3ccc(F)cc3)n2)cc1)N1CCOCC1 [Compound 116]	1.48 µM
CCC(C)C(=O)Nc1nc(-c2ccc(S(=O)(=O)N3CCCCC3C)cc2)cs1 (centres unmarked) [Compound 44]	0.29 µM
CCN(CC)S(=O)(=O)c1ccc(-c2csc(Cc3cccc(C(F)(F)F)c3)n2)cc1 [Compound 108]	≥ 80 µM
CC(=O)Nc1nc(-c2ccc(S(=O)(=O)N3CCOCC3)cc2)cs1 [Compound 9]	13.4 µM
CCCCCC(=O)Nc1nc(-c2ccc(S(=O)(=O)N3CCCC3)cc2)cs1 [Compound 50]	0.14 µM
O=C(Nc1nc(-c2ccc(S(=O)(=O)N3CCOCC3)cc2)cs1)C1CC1 [Compound 17]	5.2 µM
CCN(CC)S(=O)(=O)c1ccc(-c2csc(-c3ccc(Br)cc3C)n2)cc1 [Compound 106]	≥ 80 µM
O=C(Nc1nc(-c2ccc(S(=O)(=O)N3CCOCC3)cc2)cs1)C1CCCC1 [Compound 19]	> 80 µM
CCC(CC)C(=O)Nc1nc(-c2ccc(S(=O)(=O)N3CCC(C)CC3)cc2)cs1 [Compound 61]	1.8 µM
CC(C)(C)OC(=O)Nc1nc(-c2ccc(S(=O)(=O)N3CCOCC3)cc2)cs1 [Compound 21]	29 µM
CC(=O)Nc1nc(-c2ccc(S(=O)(=O)N3CCSCC3)cc2)cs1 [Compound 13]	> 80 µM
CCCCCC(=O)Nc1nc(-c2ccc(S(=O)(=O)N(CC)CC)cc2)cs1 [Compound 53]	0.2 µM
CCN(CC)S(=O)(=O)c1ccc(-c2csc(Cc3ccccc3F)n2)cc1 [Compound 109]	1.72 µM
CC(C)CC(=O)Nc1nc(-c2ccc(S(=O)(=O)N3CCOCC3)cc2)cs1 [Compound 7]	11.6 µM
O=C(Nc1nc(-c2ccc(S(=O)(=O)N3CCCC3)cc2)cs1)C1CCCC1 [Compound 30]	0.73 µM
CN(C)S(=O)(=O)c1ccc(-c2csc(NC(=O)C3CCCC3)n2)cc1 [Compound 43]	1.6 µM

Compound	IC50
CCC(C)C(=O)Nc1nc(-c2ccc(S(=O)(=O)N3CCCC3)cc2)cs1 (centres unmarked) [Compound 48]	0.15 µM
O=S(=O)(c1ccc(-c2csc(Cc3ccccc3)n2)cc1)N1CCOCC1 [Compound 96]	0.66 µM
CC(C)CC(=O)Nc1nc(-c2ccc(S(=O)(=O)N3CCC(C)CC3)cc2)cs1 [Compound 59]	60.4 µM
CC(C)C(=O)Nc1nc(-c2ccc(S(=O)(=O)N(C)C)cc2)cs1 [Compound 39]	0.58 µM
CC(C)C(=O)Nc1nc(-c2ccc(S(=O)(=O)N3CCOCC3)cc2)cs1 [Compound 6]	0.82 µM
O=C(Nc1nc(-c2ccc(S(=O)(=O)N3CCCC3)cc2)cs1)c1ccco1 [Compound 4]	4.68 µM
CCC(CC)C(=O)Nc1nc(-c2ccc(S(=O)(=O)N(CC)CC)cc2)cs1 [Compound 55]	0.33 µM
O=C(Nc1nc(-c2ccc(S(=O)(=O)N3CCOCC3)cc2)cs1)c1cccs1 [Compound 10]	32.9 µM
CN(C)S(=O)(=O)c1ccc(-c2csc(-c3cccnc3)n2)cc1 [Compound 83]	5.21 µM
CCN(CC)S(=O)(=O)c1ccc(-c2csc(NC(=O)C3CC3)n2)cc1 [Compound 35]	0.99 µM
CCN(CC)S(=O)(=O)c1ccc(-c2csc(NC(=O)C3CCCCC3)n2)cc1 [Compound 38]	2.9 µM
CCN(CC)S(=O)(=O)c1ccc(-c2csc(-c3cccc(Br)c3)n2)cc1 [Compound 107]	≥ 80 µM
COc1ccccc1C(=O)Nc1nc(-c2ccc(S(=O)(=O)N3CCOCC3)cc2)cs1 [Compound 5]	11.9 µM
CCN(CC)S(=O)(=O)c1ccc(-c2csc(Cc3ccc(F)cc3)n2)cc1 [Compound 111]	2.41 µM
O=C(COc1ccccc1)Nc1nc(-c2ccc(S(=O)(=O)N3CCOCC3)cc2)cs1 [Compound 3]	0.42 µM
O=S(=O)(c1ccc(-c2csc(Nc3ccc(F)cc3)n2)cc1)N1CCCC1 [Compound 80]	14.8 µM
CCC(=O)Nc1nc(-c2ccc(S(=O)(=O)N3CCOCC3)cc2)cs1 [Compound 14]	4.5 µM
CC(C)CC(=O)Nc1nc(-c2ccc(S(=O)(=O)N3CCCC3)cc2)cs1 [Compound 52]	1.6 µM
CCC(=O)Nc1nc(-c2ccc(S(=O)(=O)N3CCCC3)cc2)cs1 [Compound 26]	0.65 µM
CCN(CC)S(=O)(=O)c1ccc(-c2csc(C)n2)cc1 [Compound 82]	≥ 80 µM
CCC(=O)Nc1nc(-c2ccc(S(=O)(=O)N(CC)CC)cc2)cs1 [Compound 31]	4.25 µM
CCN(CC)S(=O)(=O)c1ccc(-c2csc(C(C)(C)C)n2)cc1 [Compound 102]	12.6 µM
CCN(CC)S(=O)(=O)c1ccc(-c2csc(Cc3ccccc3OC)n2)cc1 [Compound 113]	6.92 µM
CCN(CC)S(=O)(=O)c1ccc(-c2csc(-c3ccc(Br)cc3)n2)cc1 [Compound 105]	≥ 80 µM
CCCCCCC(=O)Nc1nc(-c2ccc(S(=O)(=O)N3CCCC3)cc2)cs1 [Compound 51]	0.85 µM
O=S(=O)(c1ccc(-c2csc(-c3cccnc3)n2)cc1)N1CCOCC1 [Compound 81]	2.14 µM
O=S(=O)(c1ccc(-c2csc(-c3cccnc3)n2)cc1)N1CCCC1 [Compound 69]	1.51 µM

Compound	IC50
O=C(Nc1nc(-c2ccc(S(=O)(=O)N3CCOCC3)cc2)cs1)c1ccco1 [Compound 11]	37.4 µM
CCCCCC(=O)Nc1nc(-c2ccc(S(=O)(=O)N3CCC(C)CC3)cc2)cs1 [Compound 57]	0.75 µM
CCCCCCC(=O)Nc1nc(-c2ccc(S(=O)(=O)N3CCC(C)CC3)cc2)cs1 [Compound 58]	4.5 µM
CCC(CC)C(=O)Nc1nc(-c2ccc(S(=O)(=O)N3CCCC3)cc2)cs1 [Compound 49]	0.26 µM
O=C(COc1cccc(Cl)c1)Nc1nc(-c2ccc(S(=O)(=O)N3CCOCC3)cc2)cs1 [Compound 2]	4.5 µM
CCCCC(=O)Nc1nc(-c2ccc(S(=O)(=O)N3CCCC3)cc2)cs1 [Compound 8]	0.2 µM
CCC(=O)Nc1nc(-c2ccc(S(=O)(=O)N(C)C)cc2)cs1 [Compound 40]	1.1 µM
CCCCC(=O)Nc1nc(-c2ccc(S(=O)(=O)N3CCCCC3C)cc2)cs1 (centres unmarked) [Compound 45]	0.38 µM
CCCCCCC(=O)Nc1nc(-c2ccc(S(=O)(=O)N(CC)CC)cc2)cs1 [Compound 54]	1.4 µM
CCN(CC)S(=O)(=O)c1ccc(-c2csc(NC(=O)C3CC3)n2)cc1 [Compound 34]	2.3 µM
CCc1nc(-c2ccc(S(=O)(=O)N(CC)CC)cc2)cs1 [Compound 100]	≥ 80 µM
CCCC(=O)Nc1nc(-c2ccc(S(=O)(=O)N3CCCCC3C)cc2)cs1 (centres unmarked) [Compound 46]	0.58 µM
CC(C)C(=O)Nc1nc(-c2ccc(S(=O)(=O)N3CCCC3)cc2)cs1 [Compound 27]	0.277 µM
CC1CCN(S(=O)(=O)c2ccc(-c3csc(NC(=O)C(C)C)n3)cc2)CC1 [Compound 24]	0.66 µM
CCC(=O)Nc1nc(-c2ccc(S(=O)(=O)N3CCC(C)CC3)cc2)cs1 [Compound 23]	> 80 µM
O=C(Nc1nc(-c2ccc(S(=O)(=O)N3CCCC3)cc2)cs1)C1COc2ccccc2O1 (centres unmarked) [Compound 63]	1.31 µM
CCC(C)C(=O)Nc1nc(-c2ccc(S(=O)(=O)N3CCOCC3)cc2)cs1 (centres unmarked) [Compound 15]	0.31 µM
CCN(CC)S(=O)(=O)c1ccc(-c2csc(-c3ccc(F)cc3)n2)cc1 [Compound 103]	1.11 µM
CCN(CC)S(=O)(=O)c1ccc(-c2csc(-c3ccc(Cl)cc3)n2)cc1 [Compound 104]	≥ 80 µM
CCC(C)C(=O)Nc1nc(-c2ccc(S(=O)(=O)N3CCC(C)CC3)cc2)cs1 (centres unmarked) [Compound 60]	0.41 µM
CN(C)S(=O)(=O)c1ccc(-c2csc(NC(=O)C3CC3)n2)cc1 [Compound 41]	1.2 µM
CCN(CC)S(=O)(=O)c1ccc(-c2csc(Cc3cccc(I)c3)n2)cc1 [Compound 112]	5.01 µM
O=C(Nc1nc(-c2ccc(S(=O)(=O)N3CCCC3)cc2)cs1)C1CCC1 [Compound 29]	0.4 µM
CN(C)S(=O)(=O)c1ccc(-c2csc(NC(=O)C3CCC3)n2)cc1 [Compound 42]	1.4 µM
CCCCC(=O)Nc1nc(-c2ccc(S(=O)(=O)N(CC)CC)cc2)cs1 [Compound 32]	0.172 µM
CCN(CC)S(=O)(=O)c1ccc(-c2csc(NC(=O)C3CCCC3)n2)cc1 [Compound 36]	1.2 µM
